We go through 19 molecules from patent publication US20250144067A1, “PERSONALIZED STARVATION THERAPY FOR CANCER” (Faeth Therapeutics, Inc., priority 2021, published 2025).

In experiment [1] the test system is NCI-H292 lung cancer cells. As to the kind of experiment: FDA drug screening, complete media vs cholesterol-free media without statin (TABLE 1). It counts as cell-based, human.
The subject of experiment [2] is NCI-H292 lung cancer cells. As to the kind of experiment: FDA drug screening, complete media vs cholesterol-free media with simvastatin (TABLE 2). It counts as cell-based, human. The following applies: for Cholesterol-free media + simvastatin (0.04 μM) / Complete Media: NCI-H292 cells.
The mark [3] stands for this setting: Complete minus Cholesterol-free, greater than 0 enhanced anti-cancer activity, about 0 neutral, below 0 antagonists.
Where [4] appears, read: NCI-H292 cells in cholesterol-free media without statin.
[5] abbreviates: NCI-H292 cells in complete media.
The mark [6] stands for this setting: cholesterol-free media with simvastatin 0.04 μM, cell growth value in FDA drug screen.
The mark [7] stands for this setting: complete media, cell growth value in FDA drug screen.
The mark [8] stands for this setting: complete media minus cholesterol-free media + simvastatin, >0 enhanced anti-cancer activity, about 0 neutral, <0 antagonist.
[9] abbreviates: Complete minus Cholesterol-free, […].
Setting [10] is: NCI-H292 cells, FDA drug library screen, cholesterol-free media without statin.
Where [11] appears, read: NCI-H292 cells, FDA drug library screen, complete media.
The mark [12] stands for this setting: FDA library drug in cholesterol-free media with simvastatin 0.04 μM.
The mark [13] stands for this setting: FDA library drug in complete media.
Where [14] appears, read: complete media vs cholesterol-free media + simvastatin (0.04 μM), >0 enhanced anti-cancer activity, about 0 neutral, <0 antagonist.
[15] abbreviates: drug in cholesterol-free media with simvastatin 0.04 μM.
The mark [16] stands for this setting: Complete minus Cholesterol-free, >0 enhanced anti-cancer activity, about 0 neutral, <0 antagonist.
[17] abbreviates: NCI-H292 cells, cholesterol-free media without statin.
Where [18] appears, read: FDA drug library screen, cholesterol-free media with simvastatin 0.04 μM.
[19] abbreviates: FDA drug library screen, complete media.
[20] abbreviates: NCI-H292 cells, cholesterol-free media without statin, FDA drug library screen.
Where [21] appears, read: NCI-H292 cells, complete media, FDA drug library screen.
Where [22] appears, read: complete vs cholesterol-free media, >0 enhanced anti-cancer activity, about 0 neutral, <0 antagonist.
[23] abbreviates: Complete minus Cholesterol-free, greater than 0 enhanced anti-cancer activity, about 0 neutral, below 0 antagonist.
Setting [24] is: cholesterol-free media with simvastatin 0.04 μM, FDA drug library screen (TABLE 2).
Setting [25] is: complete media, FDA drug library screen (TABLE 2).
The mark [26] stands for this setting: complete media minus cholesterol-free media + simvastatin (0.04 μM), >0 enhanced anti-cancer activity, about 0 neutral, <0 antagonist.

Counter-ions that a name gives are not always drawn.

As for `OC[C@H]1O[C@@H](c2ccc(F)c(Cc3cc4ccccc4s3)c2)[C@H](O)[C@@H](O)[C@@H]1O` [Ipragliflozin], the Difference is −0.87 in experiment [1] (setting [3]) and 0.07 in experiment [2] (setting [8]). Also, the Cholesterol-free in experiment [1] (setting [4]) turned out to be 1.769. In experiment [1] (setting [5]), the Complete is recorded as 0.8999. Besides, the “Cholesterol-free media + simvastatin (0.04 μM)” value in experiment [2] (setting [6]) is listed as 0.8889. Besides, in experiment [2] (setting [7]), the “Complete Media” value is 0.9547.

Take `O=C(Nc1ccccc1)c1ccccc1O` [Salicylanilide]: the Difference was −0.19 in experiment [1] (setting [9]) and 0.04 in experiment [2] (complete media minus cholesterol-free media + simvastatin, […]). Besides, the Cholesterol-free in experiment [1] (setting [10]) stood at 1.231. This molecule registered a Complete in experiment [1] (setting [11]) of 1.046. The “Cholesterol-free media + simvastatin (0.04 μM)” value in experiment [2] (cholesterol-free media with simvastatin 0.04 μM, […]) amounted to 1.321. For the same molecule, in experiment [2] (complete media, […]), the “Complete Media” value was found to be 1.359.

`c1cnc2cc3c(cc2n1)[C@@H]1CNC[C@H]3C1` [Varenicline]: the Difference in experiment [1] (setting [3]) is −0.54; in experiment [2] (setting [14]) it was −0.33. In experiment [1] (setting [4]), this molecule returned a Cholesterol-free of 1.353. The Complete in experiment [1] (setting [5]) came to 0.8146. In experiment [2] (setting [12]), the “Cholesterol-free media + simvastatin (0.04 μM)” value was 1.359. Besides, the “Complete Media” value in experiment [2] (setting [13]) is listed as 1.033.

Take Streptomycin (sulfate): the Difference in experiment [1] (setting [9]) is reported as −1.05; in experiment [2] (complete media vs cholesterol-free media + simvastatin (0.04 μM), […]) it was −0.18. In experiment [1] (setting [4]), this molecule gave a Cholesterol-free of 2.317. Besides, the Complete in experiment [1] (setting [5]) was 1.265. Moreover, in experiment [2] (setting [15]), the “Cholesterol-free media + simvastatin (0.04 μM)” value is given as 1.77. Further, the “Complete Media” value in experiment [2] (drug in complete media) is 1.586.

For the molecule Carbetapentane (citrate), the Difference in experiment [1] (setting [16]) was −0.21; in experiment [2] (setting [8]), 0.39. Besides, the Cholesterol-free in experiment [1] (setting [17]) is given as 1.181. Moreover, the Complete in experiment [1] (NCI-H292 cells, complete media) was 0.9736. Also, the “Cholesterol-free media + simvastatin (0.04 μM)” value in experiment [2] (setting [18]) is given as 0.8092. Besides, the “Complete Media” value in experiment [2] (setting [19]) turned out to be 1.195.

The molecule Saquinavir (Mesylate) gave a Cholesterol-free in experiment [1] (setting [20]) of 0.7536. The molecule further registered a Complete in experiment [1] (setting [21]) of 1.206. The results for the Difference in experiment [1] (setting [22]) and in experiment [2] (setting [14]) were 0.45 and −0.13, respectively. The “Cholesterol-free media + simvastatin (0.04 μM)” value in experiment [2] (setting [18]) worked out at 2.052. In addition, the “Complete Media” value in experiment [2] (setting [19]) is 1.925.

On to `CN1CC2c3ccccc3Oc3ccc(Cl)cc3C2C1` (stereo not shown) [Asenapine (hydrochloride)], for which the Cholesterol-free in experiment [1] (setting [20]) is given as 1.288. Moreover, the Complete in experiment [1] (setting [21]) was 1.388. For the same molecule, the values for the Difference in experiment [1] (setting [22]) and in experiment [2] (setting [8]) were 0.10 and 0.06, respectively. Moreover, in experiment [2] (setting [6]), the “Cholesterol-free media + simvastatin (0.04 μM)” value stood at 1.244. The “Complete Media” value in experiment [2] (setting [7]) is recorded as 1.302.

On to `[H]/N=C(\N/C(=N/[H])Nc1ccc(Cl)cc1)NC(C)C` [Proguanil], for which the Difference in experiment [1] (setting [23]) is reported as −0.09; in experiment [2] (setting [14]) it was −0.18. This molecule also returned a Cholesterol-free in experiment [1] (setting [10]) of 1.148. Further, the Complete in experiment [1] (setting [11]) is listed as 1.059. In addition, the “Cholesterol-free media + simvastatin (0.04 μM)” value in experiment [2] (setting [15]) is 1.355.

As to `Cn1ncnc1[C@H]1c2n[nH]c(=O)c3cc(F)cc(c23)N[C@@H]1c1ccc(F)cc1` [Talazoparib tosylate], the Difference is given as 0.05 in experiment [1] (setting [16]) and −0.29 in experiment [2] (setting [14]). Besides, in experiment [1] (setting [20]), the Cholesterol-free is listed as 0.1398. Also, in experiment [1] (setting [21]), the Complete was 0.1924. In experiment [2] (setting [12]), the “Cholesterol-free media + simvastatin (0.04 μM)” value is given as 0.5996. Also, the “Complete Media” value in experiment [2] (setting [13]) came out at 0.312.

For the molecule `Cc1cc(O)cc(C)c1Cl` [Chloroxylenol], the Difference is on record as −0.19 in experiment [1] (setting [16]) and −0.04 in experiment [2] (setting [26]). The Cholesterol-free in experiment [1] (setting [17]) turned out to be 1.219. Further, the Complete in experiment [1] (NCI-H292 cells, complete media) is on record as 1.028. Further, the “Cholesterol-free media + simvastatin (0.04 μM)” value in experiment [2] (setting [24]) was determined as 0.9866. For the same molecule, the “Complete Media” value in experiment [2] (setting [25]) turned out to be 0.951.

Regarding `CCCCC(F)(F)[C@@]1(O)CC[C@H]2[C@@H](CC(=O)[C@@H]2CCCCCCC(=O)O)O1` [Lubiprostone], the Difference in experiment [1] (setting [16]) is given as −0.28; in experiment [2] (setting [8]), 0.21. The molecule further yielded a Cholesterol-free in experiment [1] (setting [17]) of 1.064. The Complete in experiment [1] (NCI-H292 cells, complete media) is reported as 0.7833. The “Cholesterol-free media + simvastatin (0.04 μM)” value in experiment [2] (setting [18]) came to 1.061. Moreover, in experiment [2] (setting [19]), the “Complete Media” value amounted to 1.267.

For the molecule `C[C@](N)(Cc1ccc(O)cc1)C(=O)O` [Metyrosine], the figures for the Difference in experiment [1] (setting [23]) and in experiment [2] (setting [26]) were −0.10 and 0.00, respectively. Moreover, the Cholesterol-free in experiment [1] (setting [10]) is given as 1.606. For the same molecule, the Complete in experiment [1] (setting [11]) was 1.504. In experiment [2] (setting [24]), the “Cholesterol-free media + simvastatin (0.04 μM)” value was 0.9769. Also, the “Complete Media” value in experiment [2] (setting [25]) came to 0.9769.

Regarding `C[C@H]1O[C@H](O[C@H]2[C@H](O)[C@@H](O)[C@@H](O[C@H]3[C@H](O)[C@@H](O)C(O)O[C@@H]3CO)O[C@@H]2CO)[C@H](O)[C@@H](O)[C@@H]1N[C@H]1C=C(CO)[C@@H](O)[C@H](O)[C@H]1O` (stereo partly shown) [Acarbose], the Difference in experiment [1] (setting [23]) is recorded as −0.13; in experiment [2] (setting [8]), 0.31. The same molecule yielded a Cholesterol-free in experiment [1] (setting [10]) of 1.056. In addition, the Complete in experiment [1] (setting [11]) is on record as 0.9216. Also, the “Cholesterol-free media + simvastatin (0.04 μM)” value in experiment [2] (setting [18]) is 0.841.

In turn, `Cc1cccn2c(=O)c(-c3nnn[nH]3)cnc12` [Pemirolast (potassium)] had a Cholesterol-free in experiment [1] (setting [20]) of 0.8951. In experiment [1] (setting [21]), this molecule had a Complete of 1.011. The figures for the Difference in experiment [1] (setting [22]) and in experiment [2] (setting [14]) were 0.12 and −0.11, respectively. In addition, the “Cholesterol-free media + simvastatin (0.04 μM)” value in experiment [2] (setting [18]) was determined as 1.053. Also, in experiment [2] (setting [19]), the “Complete Media” value worked out at 0.9441.

Take `O=C[C@H](O)[C@@H](O)[C@H](O)CO` (racemic) [DL-Xylose]: the Difference is given as −0.70 in experiment [1] (setting [3]) and 0.37 in experiment [2] (setting [8]). Moreover, the Cholesterol-free in experiment [1] (setting [4]) is 1.5. The molecule also came in with a Complete in experiment [1] (setting [5]) of 0.7993. Also, the “Cholesterol-free media + simvastatin (0.04 μM)” value in experiment [2] (setting [18]) is 0.8322. In addition, the “Complete Media” value in experiment [2] (setting [19]) is reported as 1.203.

Regarding `NCCCC(O)(P(=O)(O)O)P(=O)(O)O` [Alendronic acid], the Cholesterol-free in experiment [1] (setting [17]) was 1.207. This molecule came in with a Complete in experiment [1] (NCI-H292 cells, complete media) of 0.7802. Moreover, the Difference is reported as −0.43 in experiment [1] (complete vs cholesterol-free media, greater than 0 enhanced anti-cancer activity, about 0 neutral, below 0 antagonists) and 0.06 in experiment [2] (setting [8]). The “Cholesterol-free media + simvastatin (0.04 μM)” value in experiment [2] (setting [6]) came out at 0.8926. Besides, in experiment [2] (setting [7]), the “Complete Media” value amounted to 0.9547.

In turn, `O=C(O)COC(=O)Cc1ccccc1Nc1c(Cl)cccc1Cl` [Aceclofenac] registered a Cholesterol-free in experiment [1] (setting [20]) of 0.9513. This molecule gave a Complete in experiment [1] (setting [21]) of 1.14. In addition, the Difference is 0.19 in experiment [1] (setting [22]) and −0.13 in experiment [2] (setting [14]). In experiment [2] (setting [18]), the “Cholesterol-free media + simvastatin (0.04 μM)” value is reported as 1.455. Further, the “Complete Media” value in experiment [2] (setting [19]) was 1.329.

Consider `CCc1c2c(nc3ccc(OC(=O)N4CCC(N5CCCCC5)CC4)cc13)-c1cc3c(c(=O)n1C2)COC(=O)[C@]3(O)CC` [Irinotecan (hydrochloride)], for which the Difference in experiment [1] (setting [16]) turned out to be 0.02; in experiment [2] (setting [8]), 0.13. In experiment [1] (setting [20]), this molecule showed a Cholesterol-free of 1.352. The Complete in experiment [1] (setting [21]) is recorded as 1.37. Besides, the “Cholesterol-free media + simvastatin (0.04 μM)” value in experiment [2] (setting [6]) is listed as 0.928. Further, the “Complete Media” value in experiment [2] (setting [7]) turned out to be 1.063.

Consider `Cc1cnc(Nc2ccc(OCCN3CCCC3)cc2)nc1Nc1cccc(S(=O)(=O)NC(C)(C)C)c1` [Fedratinib], for which the Difference is reported as −0.27 in experiment [1] (setting [16]) and −0.39 in experiment [2] (setting [14]). The same molecule had a Cholesterol-free in experiment [1] (setting [17]) of 0.5626. Moreover, the Complete in experiment [1] (NCI-H292 cells, complete media) is 0.2926. In addition, the “Cholesterol-free media + simvastatin (0.04 μM)” value in experiment [2] (setting [12]) worked out at 0.6759. Moreover, the “Complete Media” value in experiment [2] (setting [13]) came out at 0.284.
